Consider five compounds from patent US20060110407A1 (priority 2001, published 2006).

For test [1], the system named is camelpox, cowpox, monkeypox, and vaccinia viruses. The settings on record: cited from earlier work.
The test system of another test is Vaccinia strain IHD-J. Also on record: species or system Balb/c mice. As to conditions: mouse, in vivo.

For `Nc1nc2c(ncn2CCC(CO)CO)c(=O)[nH]1` [penciclovir], in test [1], the “effectiveness in treating Orthopoxvirus infections” value (shortened to “effectiveness”) is “effective”.
Consider `COc1c(C)c2c(c(O)c1C/C=C(\C)CCC(=O)O)C(=O)OC2` [mycophenolic acid], for which, in test [1], the “effectiveness” value is “effective”.
As to `CC(=O)OCC(CCn1cnc2cnc(N)nc21)COC(C)=O` [famciclovir], the “effectiveness” value in test [1] is on record as “effective”.
With `Nc1ccn(C[C@@H](CO)OCP(=O)(O)O)c(=O)n1` [Cidofovir ™, Cidofovir], in the test with Vaccinia strain IHD-J, the “Mean (number of pocks per tail)” value came out at 24.2 and the “Mean difference compared to negative control (Saline)” value is reported as −17.7. For the same compound, in test [1], the “effectiveness” value is reported as “effective”.
Take `NC(=O)c1ncn([C@@H]2O[C@H](CO)[C@@H](O)[C@H]2O)n1` [ribavirin]: the “effectiveness” value in test [1] was “effective”.
